The source of these data is patent US4199501A, “Peptides related to somatostatin” (Eli Lilly and Company, priority 1978, dated 1980).

The test system of assay [1] is growth hormone (GH) secretion. Description: Growth Hormone Inhibition In Rats (pentobarbital-stimulated GH secretion, serum GH by radioimmunoassay). The class given is in vivo. Further details: Serum Growth Hormone Conc. Mean ± SEM: unit not given here. As to conditions: male rats; for % Inhibition of GH release (as compared to saline controls): 20 minutes; for Serum Growth Hormone Conc. Mean ± SEM: with sodium pentobarbital 4 mg/rat I.P., blood 20 minutes later. As for the experimental part:
A. Growth Hormone Inhibition In Rats:
This test is a modification of the method of P. Brazeau et al. Endocrinology, 94, 184 (1974). Male rats (weighing 100-110 g.) are divided into three groups of eight rats each. Each rat is administered sodium pentobarbital at a dose of 4 mg/rat (I.P.) to stimulate growth hormone (GH) secretion. Simultaneously, one group of rats receives the test compound (S.C.); the second group receives somatostatin (S.C.); and the third group (control) receives saline (S.C.). Twenty-minutes later, the animals are decapitated and blood samples are collected. The serum concentration of growth hormone (GH) is determined by radioimmunoassay. The mean GH concentration (± standard error of the mean) is calculated for each group. The percent inhibition of GH release (as compared to saline controls) is then calculated for the test compound and for somatostatin. When tested as above-described, the peptide of Example 4, (D-Ala^2, D-Ala^5, Cha^6, D-Trp^8, D-Val^10 -somatastatin) representative of the peptides of Formula III, gave the results set forth below in Table I: […]

A further assay concerns serum glucagon. Description: Glucagon Inhibition In Dogs (L-alanine infusion, serum glucagon by radioimmunoassay). The assay is classed as in vivo, dog. As for the experimental part:
(§1) B. Insulin and Glucagon Inhibition In Dogs:
(§2) A normal dog is fasted overnight. An intravenous (I.V.) infusion of the test compound (dissolved in saline) is begun. Thirty minutes thereafter an additional infusion of L-alanine (dissolved in saline) is begun and is continued for a total of 15 minutes so that a total dose of about 1 mmole of L-alanine per kg. body weight is given. Infusion of the test compound is continued for an additional 15 minute period.
(§3) Blood samples are taken periodically before (at -20, -10 and -1 minutes) and after (5, 10, 15, 30, 35, 40, 45, 50, 60, 90, 120 and 150 minutes) the start of the infusion of the test compound. The serum insulin and serum glucagon concentrations in the blood are determined by radioimmunoassay. A plot is made of the glucagon and insulin concentrations versus time. The plot obtained from the test compound is compared to plots obtained from somatostatin and saline (controls) in similar experiments.
(§4) Infusion of L-alanine (in the absence of somatostatin or active test compound) causes an abrupt increase in serum insulin and glucagon concentrations. The concentrations return to basal levels after the L-alanine infusion is terminated.

In the next assay the test system is serum insulin. As to the kind of experiment: Insulin Inhibition In Dogs (L-alanine infusion, serum insulin by radioimmunoassay). The class given is in vivo, dog. Here is the method: as §1, §2, §3, §4
Where [2] appears, read: dog, I.V. infusion alone (no L-alanine).
[3] abbreviates: dog, I.V. infusion in the presence of L-alanine.
[4] abbreviates: normal fasted dog, I.V. infusion at doses of 0.195 and 0.230 μg/Kg/min, L-alanine infusion.

Regarding `C[C@H](N)C(=O)NCC(=O)N[C@H]1CSSC[C@@H](C(=O)O)NC(=O)[C@H](CO)NC(=O)[C@H]([C@@H](C)O)NC(=O)[C@H](Cc2ccccc2)NC(=O)[C@H]([C@@H](C)O)NC(=O)[C@H](CCCCN)NC(=O)[C@H](Cc2c[nH]c3ccccc23)NC(=O)[C@H](Cc2ccccc2)NC(=O)[C@H](Cc2ccccc2)NC(=O)[C@H](CC(N)=O)NC(=O)[C@H](CCCCN)NC1=O` [Somatostatin], the “% Inhibition of GH release (as compared to saline controls)” value (shortened to “% Inhibition of GH release”) in assay [1] (dose 2 (mg/kg) S.C.) amounted to 22%; in assay [1] (dose 50 (mg/kg) S.C.), 64%. Besides, the “effect on basal serum concentration of glucagon” value in the assay with serum glucagon (setting [2]) is reported as “causes a decrease”. Moreover, the “effect on increase in glucagon concentration induced by L-alanine” value with serum glucagon (setting [3]) is recorded as “inhibits the increase”. Also, the “effect on basal serum concentration of insulin” value with serum insulin (setting [2]) is “causes a decrease”. Moreover, the “effect on increase in insulin concentration induced by L-alanine” value with serum insulin (setting [3]) is given as “inhibits the increase”.

Regarding “L-Alanyl-D-alanyl-L-cysteinyl-L-lysyl-D-alanyl-L-cyclohexylalanyl-L-phenylalanyl-D-tryptophyl-L-lysyl-D-valyl-L-phenylalanyl-L-threonyl-L-seryl-L-cysteine cyclic (3->14) disulfide [Example 4]”, in assay [1] (dose 2 (mg/kg) S.C.), the “% Inhibition of GH release” value is recorded as 36% and the “Serum Growth Hormone Conc. Mean ± SEM” value came out at 71.6 ± 29.5. For the same compound, in assay [1] (dose 50 (mg/kg) S.C.), the “% Inhibition of GH release” value was determined as 73% and the “Serum Growth Hormone Conc. Mean ± SEM” value was 29.8 ± 18.6. Moreover, the “inhibition of glucagon concentration” value in the assay on serum glucagon (setting [4]) is listed as “no significant inhibition”. The “inhibition of insulin concentration” value in the assay with serum insulin (setting [4]) is reported as “no significant inhibition”.
